The supplement of paper PMC11451515

Test system: SEM cells
Assay: cell viability relative to DMSO control; higher = less cytotoxic
Conditions: 48 h
Method in brief: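 Library compounds in DMSO were pin-dosed into 1536-well plates (5 μl) holding NOMO1 or SEM (500 cells/well) or P12-Ichikawa (1000 cells/well) leukemia cells, across an 11-point threefold series of 47 μM to 0.79 nM. Each cell line had been adapted for at least four passages in each medium. CellTiter-Glo One luminescence was read after 48 h at 37°C. Viability is the per-plate percentage relative to DMSO wells, with cell-free wells as background.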

[1] = HPLM + 10% dialyzed FBS, 0.000781 µM
[2] = HPLM + 10% dialyzed FBS, 0.00234 µM
[3] = HPLM + 10% dialyzed FBS, 0.00702 µM
[4] = HPLM + 10% dialyzed FBS, 0.0211 µM
[5] = HPLM + 10% dialyzed FBS, 0.0632 µM
[6] = HPLM + 10% dialyzed FBS, 0.19 µM
[7] = HPLM + 10% dialyzed FBS, 0.569 µM
[8] = HPLM + 10% dialyzed FBS, 1.71 µM
[9] = HPLM + 10% dialyzed FBS, 5.12 µM
[10] = HPLM + 10% dialyzed FBS, 15.4 µM
[11] = HPLM + 10% dialyzed FBS, 46.1 µM
[12] = RPMI 5 mM glucose + 10% FBS, 0.000781 µM
[13] = RPMI 5 mM glucose + 10% FBS, 0.00234 µM
[14] = RPMI 5 mM glucose + 10% FBS, 0.00702 µM
[15] = RPMI 5 mM glucose + 10% FBS, 0.0211 µM
[16] = RPMI 5 mM glucose + 10% FBS, 0.0632 µM
[17] = RPMI 5 mM glucose + 10% FBS, 0.19 µM
[18] = RPMI 5 mM glucose + 10% FBS, 0.569 µM
[19] = RPMI 5 mM glucose + 10% FBS, 1.71 µM
[20] = RPMI 5 mM glucose + 10% FBS, 5.12 µM
[21] = RPMI 5 mM glucose + 10% FBS, 15.4 µM
[22] = RPMI 5 mM glucose + 10% FBS, 46.1 µM
[23] = RPMI 5 mM glucose + 10% dialyzed FBS, 0.000781 µM
[24] = RPMI 5 mM glucose + 10% dialyzed FBS, 0.00234 µM
[25] = RPMI 5 mM glucose + 10% dialyzed FBS, 0.00702 µM
[26] = RPMI 5 mM glucose + 10% dialyzed FBS, 0.0211 µM
[27] = RPMI 5 mM glucose + 10% dialyzed FBS, 0.0632 µM
[28] = RPMI 5 mM glucose + 10% dialyzed FBS, 0.19 µM
[29] = RPMI 5 mM glucose + 10% dialyzed FBS, 0.569 µM
[30] = RPMI 5 mM glucose + 10% dialyzed FBS, 1.71 µM
[31] = RPMI 5 mM glucose + 10% dialyzed FBS, 5.12 µM
[32] = RPMI 5 mM glucose + 10% dialyzed FBS, 15.4 µM
[33] = RPMI 5 mM glucose + 10% dialyzed FBS, 46.1 µM

SMILES	cell viability [1] [%]	cell viability [2] [%]	cell viability [3] [%]	cell viability [4] [%]	cell viability [5] [%]	cell viability [6] [%]	cell viability [7] [%]	cell viability [8] [%]	cell viability [9] [%]	cell viability [10] [%]	cell viability [11] [%]	cell viability [12] [%]	cell viability [13] [%]	cell viability [14] [%]	cell viability [15] [%]	cell viability [16] [%]	cell viability [17] [%]	cell viability [18] [%]	cell viability [19] [%]	cell viability [20] [%]	cell viability [21] [%]	cell viability [22] [%]	cell viability [23] [%]	cell viability [24] [%]	cell viability [25] [%]	cell viability [26] [%]	cell viability [27] [%]	cell viability [28] [%]	cell viability [29] [%]	cell viability [30] [%]	cell viability [31] [%]	cell viability [32] [%]	cell viability [33] [%]
O=C([O-])C[C@H](O)C[C@H](O)/C=C/c1c(C2CC2)nc2ccccc2c1-c1ccc(F)cc1	82.3	73.1	97.5	102	89.1	90	86.1	83.9	87.4	70	18.9	99.4	85.2	99.1	97.9	108	99.4	96.7	109	81.6	43.7	10.7	99.1	81	91.7	95.9	112	85	79.6	97.9	94.5	69.1	13.6
Cc1c(-c2cccc3c(CCCOc4cccc5ccccc45)c(C(=O)O)n(Cc4cccnc4)c23)c(COc2ccc(N3CCN([S+](=O)([O-])N(C)C)CC3)cc2)nn1C	92.3	99.5	85.1	85.2	104	82.8	83.5	97.6	81	79.2	48.3	100	108	86.2	129	111	128	112	114	102	95.5	54.8	107	99.1	80.5	83.2	100	91.5	109	96.5	77.1	70	43
COc1cc2ncn(-c3cc(OCc4ccccc4[S+](C)(=O)[O-])c(C#N)s3)c2cc1OC	102	102	90.9	105	95.1	98.3	98.3	103	78.5	95.7	82.4	114	110	100	124	121	110	108	107	94.4	122	93.4	92.4	107	89.1	103	98.9	110	112	101	106	98.7	78.9
O=[N+]([O-])c1ncc[nH]1	86	88.2	99.9	93.1	74.6	88	76.1	84	89.3	79.9	55.1	98.2	91.2	94.5	113	94.9	93.5	87.2	81.3	93.9	100	74.3	108	97.4	101	101	90.4	93.7	94.8	85.8	108	106	49.8
N\C1=N\C2=C(N=C[N]2COCCO)C(=O)N1	93.7	101	97.2	103	100	99.7	111	104	89.5	77.3	60.5	87	107	106	112	101	104	115	117	106	93.4	56.5	83	93.9	95.9	94.3	95.1	115	90.1	101	88.2	73.3	44.8
Clc1cccc(-n2nnnc2NCc2ccccc2Oc2ccccn2)c1Cl	102	123	124	133	123	131	128	125	127	139	138	–	–	–	–	–	–	–	–	–	–	–	116	149	125	140	113	126	149	129	148	147	119
Cc1nc2cc(C(=O)N3CCC4(CC3)CC(=O)c3c(cnn3C(C)C)C4)ccc2[nH]1	55.6	106	94.6	104	111	114	118	105	106	124	109	–	–	–	–	–	–	–	–	–	–	–	50	109	115	158	110	122	142	122	118	126	51.6
CCC(C)N1\N=C/N(C1=O)C2=CC=C(C=C2)N3CCN(CC3)C4=CC=C(OC[C@H]5CO[C@@](C[N]6C=NC=N6)(O5)C7=CC=C(Cl)C=C7Cl)C=C4 (stereo partly specified)	94.1	106	119	116	119	124	105	122	120	112	107	–	–	–	–	–	–	–	–	–	–	–	78.4	116	115	116	113	98.6	109	115	115	117	105
